Assay results: patent publication US11434219B2, “Purification of cannabinoids from crude cannabis oil” (TABA IP, LLC, priority 2018, dated 2022)
In brackets after ≈: the same amount, converted by molar mass.

Test: Solvent survey: solubility of THCA in solvents
Format: physicochemical
Procedure: Crystallization of THCA solvent survey study is carried out according the general procedure described above at 0° C. using crystalline THCA standard (rather than cannabis oil). The solubility (g/mL) provided an indication of loading capacities: higher loading capacities are desirable to make the process more efficient. The theoretical yield of THCA is determined based on the purity of the standard, which was 97.4%.

For `CCCCCc1cc2c(c(O)c1C(=O)O)[C@@H]1C=C(C)CC[C@H]1C(C)(C)O2` [THCA, tetrahydrocannabinolic acid], the “Solubility (g/mL) 22.8° C.” value (solvent 1-Butanol) was 0.151 g/mL (≈ 421 mM), the “Solubility (g/mL) 30° C.” value (solvent 1-Butanol) was 0.258 g/mL (≈ 720 mM) and the “Solubility (g/mL) 40° C.” value (solvent 1-Butanol) was 0.514 g/mL (≈ 1430 mM). The “Solubility (g/mL) 22.8° C.” value (solvent Acetone) was 0.818 g/mL (≈ 2280 mM), the “Solubility (g/mL) 30° C.” value (solvent Acetone) was 1.063 g/mL (≈ 2970 mM) and the “Solubility (g/mL) 40° C.” value (solvent Acetone) was 1.440 g/mL (≈ 4020 mM). For the same compound, the “Solubility (g/mL) 22.8° C.” value (solvent Acetonitrile) was 0.562 g/mL (≈ 1570 mM), the “Solubility (g/mL) 30° C.” value (solvent Acetonitrile) was 0.953 g/mL (≈ 2660 mM) and the “Solubility (g/mL) 40° C.” value (solvent Acetonitrile) was 1.230 g/mL (≈ 3430 mM). The “Solubility (g/mL) 22.8° C.” value (solvent DMA) was 0.498 g/mL (≈ 1390 mM), the “Solubility (g/mL) 30° C.” value (solvent DMA) was 0.650 g/mL (≈ 1810 mM) and the “Solubility (g/mL) 40° C.” value (solvent DMA) was 0.892 g/mL (≈ 2490 mM). The “Solubility (g/mL) 22.8° C.” value (solvent DMF) was 0.612 g/mL (≈ 1710 mM), the “Solubility (g/mL) 30° C.” value (solvent DMF) was 0.929 g/mL (≈ 2590 mM) and the “Solubility (g/mL) 40° C.” value (solvent DMF) was 1.171 g/mL (≈ 3270 mM). The “Solubility (g/mL) 22.8° C.” value (solvent Ethyl Acetate) was 0.555 g/mL (≈ 1550 mM), the “Solubility (g/mL) 30° C.” value (solvent Ethyl Acetate) was 0.931 g/mL (≈ 2600 mM) and the “Solubility (g/mL) 40° C.” value (solvent Ethyl Acetate) was 1.216 g/mL (≈ 3390 mM). For the same compound, the “Solubility (g/mL) 22.8° C.” value (solvent Heptane) was 0.092 g/mL (≈ 257 mM), the “Solubility (g/mL) 30° C.” value (solvent Heptane) was 0.155 g/mL (≈ 432 mM) and the “Solubility (g/mL) 40° C.” value (solvent Heptane) was 0.258 g/mL (≈ 720 mM). For the same compound, the “Solubility (g/mL) 22.8° C.” value (solvent THF) was 0.743 g/mL (≈ 2070 mM), the “Solubility (g/mL) 30° C.” value (solvent THF) was 1.057 g/mL (≈ 2950 mM) and the “Solubility (g/mL) 40° C.” value (solvent THF) was 1.324 g/mL (≈ 3690 mM). The “Solubility (g/mL) 22.8° C.” value (solvent n-Propanol) was 0.140 g/mL (≈ 391 mM), the “Solubility (g/mL) 30° C.” value (solvent n-Propanol) was 0.360 g/mL (≈ 1000 mM) and the “Solubility (g/mL) 40° C.” value (solvent n-Propanol) was 0.585 g/mL (≈ 1630 mM).
